Data taken from PubChem BioAssay AID2060351 (Molecular Pharmacology Branch, DTP, NCI, 2025).
Where “and” joins values, the source holds several entries; their conditions need not be identical. Identical values can stand only once. Each block holds one compound with its values, some of them ahead of it.

Test system: 521955-158-R7-J2-PDC spheroids, viability % test/control
Experiment: Anticancer human tumor 521955-158-R7-J2-PDC patient-derived pancreatic carcinoma cell line growth inhibition [TAK]
Conditions: spheroids with HUVEC and MSC; for viability, T/C: stronger effect = lower value
Excerpt: Combinatorial screen of targeted agents with TAK-243 and ipatasertib in multi-cell type tumor spheroids
A high-throughput screen of multi-cell type tumor spheroids was designed to identify active combinations of targeted small molecules and TAK-243 or ipatasertib. Complex spheroids include a stromal component modeled by human endothelial cells (HUVEC) and fibroblasts modeled by human mesenchymal stem cells (MSCs). The concentration ranges selected for each drug and investigational agent were based upon clinically achievable concentrations if the clinical Cmax of the agent was known.
Compounds. The drugs and investigational agents: TAK-243 (785004), ipatasertib (767898), everolimus (733504), selumetinib (741078), bortezomib (756655), trametinib (758246), ixazomib (758254), vemurafenib (761431), dabrafenib (764134), sapanisertib (764658), alpelisib (765974), and copanlisib (816437), were obtained from the National Cancer Institute (NCI) Developmental Therapeutics Program Chemical Repository. The FDA-approved anticancer drug set is available from the NCI Developmental Therapeutics Program. […] The stock solutions were prepared in dimethyl sulfoxide (DMSO, Sigma-Aldrich, St. Louis, MO, cat. D2650) at 800-fold the tested concentration and stored at -70 degrees C prior to their use. All drugs and investigational agents were tested over a range starting from a high concentration at or near the clinical Cmax and decreasing in half-log increments. If the clinical Cmax for an agent had not been determined, the highest concentration tested was 10 microM.
NCI60 Cell Culture. NCI60 cell lines were obtained from the NCI Developmental Therapeutics Program Tumor Repository. For each lot of cells, the Repository performed Applied Biosystems AmpFLSTR Identifiler testing with PCR amplification to confirm consistency with the published Identifier STR profile for each cell line. Cells were kept in continuous culture for no more than 20 passages. The optimal seeding densities for each of the cell lines at each time point assessed were determined prior to performing the concentration response studies. Briefly, the NCI60 human tumor lines were grown as monolayers in RPMI 1640 medium supplemented with 10% FBS and 2 mmol/L L-glutamine.
An additional 2 lines were from the NCI60 cell line panel including melanomas, MALME-3M and SK-MEL-2. Pooled donor human umbilical vein endothelial cells (HUVEC, Lonza, cat. CC-2519) and human mesenchymal stem cells (hMSC, Lonza, cat. PT-2501) were purchased from Lonza (Walkersville, MD).
PDMR cell lines were grown in complete medium (DC medium): Dulbecco's modified Eagle's medium (DMEM)/F12 supplemented with 5% fetal bovine serum (FBS), 2 mM L-glutamine, 100 U/mL penicillin and 100 µg/ml streptomycin, 0.4 µg/ml hydrocortisone, 10 ng/ml epidermal growth factor (EGF) recombinant human protein, 24 µg/mL adenine, and 0.1 mg/mL primocin. During culture from frozen stock vials, PDMR cells were cultured in the same medium containing 10 µM Y-27632 (see Table 3). The PDCs were cultured in complete DMEM/F12 media without 10 microM Y-27632 dihydrochloride for at least two passages prior to the screen. The pooled donor HUVEC and hMSC were cultured in endothelial cell growth medium 2 (PromoCell, Heidelberg, Germany, cat. C-22011) and mesenchymal stem cell growth medium 2 (PromoCell, cat. C-28009), respectively. For all experiments, HUVEC and hMSC were used at passages </=5.
For the pre-screen, cell seeding densities were determined from a titration spanning the range from 5,000 to 313 cells per well. The mct-spheroids including 60% malignant cells, 25% HUVEC and 15% MSC dispensed as a mixture into U-bottom Ultra-Low Attachment 384-well plates (Corning, NY)
High-throughput Drug Combination Screening.
Prior to their inoculation into 384-well plates, malignant cells, HUVEC, and hMSC were removed from T flasks using TrypLE express (Thermo Fisher Scientific, cat. 12605036) and harvested by centrifugation for 5 min at 233 x g. […]
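Note: spheroids exposed to compound for 7 days before readout.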

IC50 (curve of compound): 1.89 nM and 1.25 nM
SMILES: CC(=O)Nc1cccc(-n2c(=O)n(C3CC3)c(=O)c3c(Nc4ccc(I)cc4F)n(C)c(=O)c(C)c32)c1
viability, T/C (compound 94.9 pM): 97.3% and 89.9%
viability, T/C (compound 0.0003 µM): 67.1% and 65.7%
viability, T/C (compound 0.000949 µM): 57.9% and 54.9%
viability, T/C (compound 0.003 µM): 48.7% and 39.5%
viability, T/C (compound 0.00949 µM): 32.1% and 27.2%
viability, T/C (compound 0.03 µM): 19.2% and 16.3%

IC50 (curve of compound): > 10000 nM
SMILES: CC(C)(C)c1nc(-c2cccc(NS(=O)(=O)c3c(F)cccc3F)c2F)c(-c2ccnc(N)n2)s1
viability, T/C (compound 0.0316 µM): 105% and 103%
viability, T/C (compound 0.1 µM): 113% and 78.3%
viability, T/C (compound 0.316 µM): 99% and 128%
viability, T/C (compound 1 µM): 101% and 131%
viability, T/C (compound 3.16 µM): 104% and 97.7%
viability, T/C (compound 10 µM): 79% and 93.3%

IC50 (curve of compound): 5.54 nM and 5.47 nM
SMILES: CC(C)CC(NC(=O)C(Cc1ccccc1)NC(=O)c1cnccn1)B(O)O (configuration not stated)
viability, T/C (compound 31.6 pM): 94% and 103%
viability, T/C (compound 0.0001 µM): 82.3% and 99.8%
viability, T/C (compound 0.000316 µM): 96.1% and 93.2%
viability, T/C (compound 0.001 µM): 88.4% and 100%
viability, T/C (compound 0.00316 µM): 103% and 93%
viability, T/C (compound 0.01 µM): 4.87% and 2.64%

IC50 (curve of compound): 42 nM and 31.6 nM
SMILES: CC(C)CC(NC(=O)CNC(=O)c1cc(Cl)ccc1Cl)B1OC(=O)CC(CC(=O)O)(C(=O)O)O1 (configuration not stated)
viability, T/C (compound 0.000316 µM): 111% and 81.1%
viability, T/C (compound 0.001 µM): 73.9% and 80.3%
viability, T/C (compound 0.00316 µM): 90.1% and 80%
viability, T/C (compound 0.01 µM): 111% and 82.8%
viability, T/C (compound 0.0316 µM): 65.7% and 50.1%
viability, T/C (compound 0.1 µM): 2.27% and 1.64%

IC50 (compound alone, run of 02/20/2020): > 30000 nM
SMILES: CC(C)NCC(C(=O)N1CCN(c2ncnc3c2C(C)CC3O)CC1)c1ccc(Cl)cc1 (configuration not stated)
viability, T/C (compound 30 µM): 84.2% [middle of 10 runs]

IC50 (curve of compound): > 100 nM
SMILES: CC(C)n1nc(-c2ccc3oc(N)nc3c2)c2c(N)ncnc21
viability, T/C (compound 0.000316 µM): 78.4% and 94.7%
viability, T/C (compound 0.001 µM): 79.4% and 104%
viability, T/C (compound 0.00316 µM): 81.2% and 82.3%
viability, T/C (compound 0.01 µM): 86.4% and 90.7%
viability, T/C (compound 0.0316 µM): 76% and 109%
viability, T/C (compound 0.1 µM): 71.2% and 53.7%

IC50 (curve of compound): > 100000 nM
SMILES: CCCS(=O)(=O)Nc1ccc(F)c(C(=O)c2c[nH]c3ncc(-c4ccc(Cl)cc4)cc23)c1F
viability, T/C (compound 0.316 µM): 98.6% and 98.4%
viability, T/C (compound 1 µM): 97.2% and 95.1%
viability, T/C (compound 3.16 µM): 94.6% and 78.2%
viability, T/C (compound 10 µM): 108% and 71%
viability, T/C (compound 31.6 µM): 82.2% and 67.9%
viability, T/C (compound 100 µM): 90.6% and 82.5%

IC50 (curve of compound): > 100 nM
SMILES: COC1CC2CCC(C)C(O)(O2)C(=O)C(=O)N2CCCCC2C(=O)OC(C(C)CC2CCC(OCCO)C(OC)C2)CC(=O)C(C)C=C(C)C(O)C(OC)C(=O)C(C)CC(C)C=CC=CC=C1C (configuration not stated)
viability, T/C (compound 0.000316 µM): 103%
viability, T/C (compound 0.001 µM): 77.4% and 84.4%
viability, T/C (compound 0.00316 µM): 75.2% and 91.7%
viability, T/C (compound 0.01 µM): 90.3% and 101%
viability, T/C (compound 0.0316 µM): 109% and 117%
viability, T/C (compound 0.1 µM): 102% and 85.5%

IC50 (curve of compound): 22.6 nM and 25.2 nM
SMILES: COc1c(OCCCN2CCOCC2)ccc2c3n(c(=NC(=O)c4cnc(N)nc4)nc12)CCN3
viability, T/C (compound 0.00316 µM): 87.5% and 86.9%
viability, T/C (compound 0.01 µM): 67.9% and 63.5%
viability, T/C (compound 0.0316 µM): 41.4% and 50.6%
viability, T/C (compound 0.1 µM): 26.5% and 25.3%
viability, T/C (compound 0.316 µM): 14.9% and 13.6%
viability, T/C (compound 1 µM): 10% and 10.6%

IC50 (curve of compound): 4560 nM and 3720 nM
SMILES: Cc1nc(NC(=O)N2CCCC2C(N)=O)sc1-c1ccnc(C(C)(C)C(F)(F)F)c1 (configuration not stated)
viability, T/C (compound 0.0316 µM): 83.2% and 92.5%
viability, T/C (compound 0.1 µM): 64.2% and 84.5%
viability, T/C (compound 0.316 µM): 59.4% and 74%
viability, T/C (compound 1 µM): 70.8% and 73.5%
viability, T/C (compound 3.16 µM): 58.1% and 52.5%
viability, T/C (compound 10 µM): 34.1% and 30.3%

IC50 (curve of compound): 41.6 nM and 87.7 nM
SMILES: Cn1cnc2c(F)c(Nc3ccc(Br)cc3Cl)c(C(=O)NOCCO)cc21
viability, T/C (compound 0.00949 µM): 66.3% and 85.1%
viability, T/C (compound 0.03 µM): 54.9% and 61.7%
viability, T/C (compound 0.0949 µM): 38.7% and 44.3%
viability, T/C (compound 0.3 µM): 31.6% and 43.3%
viability, T/C (compound 0.949 µM): 25.7% and 30%
viability, T/C (compound 3 µM): 14.6% and 16.5%
